Measured values: the CheMixHub drug solubility set

Experiment: xn = mol fraction of the nth substance listed, in the solute-free solvent

CN1CCN(C(=O)OC2c3nccnc3C(=O)N2c2ccc(Cl)cn2)CC1 (stereo unspecified) + CC#N + O
solubility (g/100 g solution)
Settings | x2 = 0.3 | x2 = 0.4 | x2 = 0.5 | x2 = 0.6 | x2 = 0.7 | x2 = 0.8 | x2 = 0.9
288.15 K | 0.593 | 1.13 | 2.08 | 2.78 | 3.27 | 3.38 | 2.87
298.15 K | 0.785 | 1.72 | 2.61 | 3.38 | 4.09 | 4.14 | 3.55
308.15 K | 0.997 | 2.11 | 3.4 | 4.41 | 5.3 | 5.38 | 4.63
318.15 K | 1.26 | 2.67 | 4.26 | 5.76 | 6.74 | 7.02 | 6.08
328.15 K | 1.77 | 3.23 | 5.56 | 7.47 | 8.64 | 8.93 | 8.18

COC(=O)C1=C(C)NC(C)=C(C(=O)OCC(C)C)C1c1ccccc1[N+](=O)[O-] (stereo unspecified) + CC#N + O
solubility (g/100 g solution)
Settings | 278.15 K | 283.15 K | 288.15 K | 293.15 K | 298.15 K | 303.15 K | 308.15 K | 313.15 K | 318.15 K
x2 = 0.04651 | 0.165 | 0.218 | 0.288 | 0.377 | 0.488 | 0.61 | 0.767 | 0.973 | 1.21
x2 = 0.0989 | 0.678 | 0.855 | 1.1 | 1.36 | 1.7 | 2.08 | 2.53 | 3.12 | 3.73
x2 = 0.1583 | 1.3 | 1.62 | 2.02 | 2.51 | 3.07 | 3.73 | 4.57 | 5.46 | 6.5
x2 = 0.2264 | 2.08 | 2.58 | 3.1 | 3.86 | 4.65 | 5.62 | 6.61 | 7.85 | 9.2
x2 = 0.3051 | 2.84 | 3.54 | 4.32 | 5.15 | 6.3 | 7.5 | 8.79 | 10.4 | 12.1
x2 = 0.397 | 3.75 | 4.65 | 5.65 | 6.7 | 8.1 | 9.55 | 11.2 | 13.1 | 15.2
x2 = 0.506 | 4.72 | 5.77 | 6.86 | 8.3 | 9.96 | 11.8 | 13.7 | 15.7 | 18
x2 = 0.6372 | 5.69 | 6.77 | 8.36 | 9.95 | 11.7 | 13.6 | 15.7 | 18.2 | 20.7
x2 = 0.798 | 6.56 | 7.83 | 9.45 | 11.2 | 13.1 | 15.2 | 17.6 | 20.2 | 22.9

Cc1nc(CCl)nc2ccccc12 + CC(C)=O + CCCCCC
solubility (g/100 g solution)
Settings | x2 = 0.144 | x2 = 0.266 | x2 = 0.403 | x2 = 0.556 | x2 = 0.729
281.15 K | 5.18 | 8.5 | 12.8 | 17.2 | 22.3
286.15 K | 6.57 | 10.8 | 15.5 | 21.2 | 27.1
291.15 K | 8.19 | 13.3 | 19.2 | 25.8 | 32.3
296.15 K | 10.3 | 16.2 | 22.9 | 30.4 | 39.2
301.15 K | 12.7 | 19.9 | 28.3 | 36.2 | 44.9
306.15 K | 15.6 | 23.9 | 33.3 | 42.4 | 51.9
311.15 K | 18.9 | 28.3 | 38.4 | 48.4 | 58.8
316.15 K | 22.5 | 33.1 | 43.7 | 54.6 | 65
321.15 K | 26.6 | 37.2 | 49 | 60.7 | 71
326.15 K | 30.9 | 42.9 | 54.4 | 65.4 | 75.5
331.15 K | 34.9 | 47.5 | 59 | 70.3 | 79.5

CN1CCN(C(=O)OC2c3nccnc3C(=O)N2c2ccc(Cl)cn2)CC1 (stereo unspecified) + CC(C)=O + O
solubility (g/100 g solution)
Settings | x2 = 0.3 | x2 = 0.4 | x2 = 0.5 | x2 = 0.6 | x2 = 0.7 | x2 = 0.8 | x2 = 0.9
288.15 K | 0.188 | 0.322 | 0.515 | 0.825 | 1.17 | 1.47 | 1.48
298.15 K | 0.259 | 0.425 | 0.644 | 1.04 | 1.52 | 1.9 | 1.94
308.15 K | 0.354 | 0.615 | 1.04 | 1.46 | 1.99 | 2.44 | 2.5
318.15 K | 0.545 | 0.801 | 1.35 | 1.88 | 2.53 | 3.29 | 3.5
328.15 K | 0.752 | 1.18 | 1.75 | 2.51 | 3.5 | 4.63 | 4.6

O=[N+]([O-])c1cc[nH]n1 + CC(C)=O + O
solubility (g/100 g solution)
Settings | 283.15 K | 288.15 K | 293.15 K | 298.15 K | 303.15 K | 308.15 K | 313.15 K | 318.15 K | 323.15 K
x2 = 0.03333 | 0.251 | 0.321 | 0.373 | 0.471 | 0.552 | 0.72 | 0.876 | 1.07 | 1.32
x2 = 0.07199 | 0.297 | 0.351 | 0.41 | 0.49 | 0.576 | 0.71 | 0.865 | 1.05 | 1.29
x2 = 0.1174 | 0.313 | 0.362 | 0.422 | 0.501 | 0.594 | 0.708 | 0.855 | 1.05 | 1.29
x2 = 0.1714 | 0.322 | 0.371 | 0.43 | 0.507 | 0.597 | 0.705 | 0.853 | 1.05 | 1.24
x2 = 0.2368 | 0.324 | 0.369 | 0.426 | 0.491 | 0.573 | 0.683 | 0.813 | 0.984 | 1.17
x2 = 0.3176 | 0.319 | 0.37 | 0.422 | 0.487 | 0.564 | 0.662 | 0.79 | 0.932 | 1.11
x2 = 0.42 | 0.324 | 0.366 | 0.414 | 0.476 | 0.543 | 0.637 | 0.749 | 0.871 | 0.999
x2 = 0.5538 | 0.306 | 0.354 | 0.398 | 0.457 | 0.527 | 0.614 | 0.722 | 0.873 | 1.02
x2 = 0.7363 | 0.299 | 0.349 | 0.397 | 0.461 | 0.515 | 0.576 | 0.678 | 0.794 | 0.916

O=c1ccc2ccccc2o1 + CC(C)=O + O
solubility (g/100 g solution)
Settings | x2 = 0.1 | x2 = 0.2 | x2 = 0.3 | x2 = 0.4 | x2 = 0.5 | x2 = 0.6 | x2 = 0.7 | x2 = 0.8 | x2 = 0.9
268.15 K | 0.474 | 2.21 | 4.51 | 9.81 | 13.8 | 17.1 | 19.9 | 21.9 | 23.1
273.15 K | 0.611 | 2.81 | 6.5 | 11.9 | 16.8 | 20.6 | 23.7 | 25.8 | 26.9
278.15 K | 0.798 | 3.96 | 8.98 | 15.3 | 20.9 | 25 | 27.8 | 30.6 | 31.5
283.15 K | 1.05 | 5.18 | 12.2 | 19.5 | 25.5 | 30.2 | 33.1 | 35.3 | 36.2
288.15 K | 1.38 | 6.75 | 16.8 | 24.6 | 31.4 | 36 | 39.3 | 41.2 | 41.8
293.15 K | 1.8 | 9.24 | 22.3 | 31.3 | 38.5 | 42.9 | 46.2 | 47.7 | 48
298.15 K | 2.27 | 12.3 | 29.6 | 38.4 | 45.7 | 49.6 | 52.6 | 53.6 | 53.9
303.15 K | 2.96 | 16.8 | 37.4 | 47 | 53.9 | 57.2 | 59.4 | 59.8 | 59.8

CC(=O)Nc1ccc(OC(=O)c2ccccc2OC(C)=O)cc1 + CC(C)O + O
solubility (g/100 g solution)
Settings | 278.15 K | 283.15 K | 288.15 K | 293.15 K | 298.15 K | 303.15 K | 308.15 K | 313.15 K | 318.15 K
x2 = 0.03225 | 0.00278 | 0.00407 | 0.0057 | 0.00819 | 0.0115 | 0.0161 | 0.0217 | 0.0296 | 0.0399
x2 = 0.06974 | 0.0072 | 0.0102 | 0.0142 | 0.0195 | 0.0268 | 0.0367 | 0.0481 | 0.0636 | 0.0846
x2 = 0.1139 | 0.015 | 0.0212 | 0.0289 | 0.0402 | 0.0537 | 0.0718 | 0.0958 | 0.126 | 0.162
x2 = 0.1666 | 0.0246 | 0.0342 | 0.0466 | 0.0633 | 0.0855 | 0.114 | 0.148 | 0.195 | 0.252
x2 = 0.2307 | 0.0358 | 0.0489 | 0.0678 | 0.0921 | 0.124 | 0.165 | 0.217 | 0.285 | 0.371
x2 = 0.3103 | 0.0475 | 0.0662 | 0.0897 | 0.123 | 0.163 | 0.215 | 0.29 | 0.374 | 0.488
x2 = 0.4117 | 0.0571 | 0.0787 | 0.109 | 0.148 | 0.197 | 0.26 | 0.341 | 0.445 | 0.574
x2 = 0.5454 | 0.0663 | 0.0911 | 0.125 | 0.167 | 0.221 | 0.295 | 0.381 | 0.494 | 0.642
x2 = 0.7297 | 0.0717 | 0.097 | 0.131 | 0.177 | 0.239 | 0.315 | 0.412 | 0.525 | 0.68

CS(=O)(=O)c1ccc(C(O)C(CF)NC(=O)C(Cl)Cl)cc1 (stereo unspecified) + CC(C)O + O
solubility (g/100 g solution)
Settings | 278.15 K | 283.15 K | 288.15 K | 293.15 K | 298.15 K | 303.15 K | 308.15 K | 313.15 K | 318.15 K
x2 = 0.03225 | 0.082 | 0.109 | 0.146 | 0.189 | 0.246 | 0.32 | 0.403 | 0.515 | 0.641
x2 = 0.06974 | 0.117 | 0.159 | 0.216 | 0.278 | 0.362 | 0.488 | 0.613 | 0.798 | 1
x2 = 0.1139 | 0.16 | 0.215 | 0.286 | 0.379 | 0.504 | 0.64 | 0.828 | 1.06 | 1.35
x2 = 0.1666 | 0.199 | 0.266 | 0.353 | 0.472 | 0.608 | 0.787 | 1.01 | 1.29 | 1.64
x2 = 0.2307 | 0.237 | 0.317 | 0.422 | 0.56 | 0.717 | 0.931 | 1.19 | 1.5 | 1.88
x2 = 0.3103 | 0.276 | 0.367 | 0.481 | 0.629 | 0.81 | 1.05 | 1.34 | 1.67 | 2.1
x2 = 0.4117 | 0.296 | 0.398 | 0.516 | 0.669 | 0.873 | 1.14 | 1.42 | 1.78 | 2.24
x2 = 0.5454 | 0.308 | 0.411 | 0.536 | 0.702 | 0.9 | 1.16 | 1.47 | 1.89 | 2.32
x2 = 0.7297 | 0.309 | 0.407 | 0.537 | 0.697 | 0.911 | 1.14 | 1.47 | 1.84 | 2.29
